Measurements reported in publication PMC12747935 (2025).

Assays:
Assay in all cases: ribozyme self-cleavage, PAGE with SYBR Gold
[1] = system: Motif_9307 allosteric ribozyme (RNA, riboswitch) GGGCGUAGCCUGAUGAGACUUAUAAUUUUUGAUAUAGAAAUAAAUUACAGUAGUUACACGCAAUAACCGUUGGUCCAAAUAGUAUCCUGUCCUGAGCCGACCGAGUCGAAACGUGGUGAAAGCCACGUCGCUGCGCCGCAGCUGUGGAA; conditions: 100 mM KCl, 20 mM MgCl2; 30 mM HEPES pH 7.5, 25°C, 30 min; no change in cleavage
[2] = system: ThiC-TPP allosteric ribozyme (bridge of four base pairs) (RNA, riboswitch) GGGCGUAGCCUGAUGAGACUCGGGGUGCCCUUCUGCGUGAAGGCUGAGAAAUACCCGUAUCACCUGAUCUGGAUAAUGCCAGCGUAGGGAAGUCGAAACGUGGUGAAAGCCACGUCGCUGCGCCGCAGCUGUGGAA; conditions: 100 mM KCl, 20 mM MgCl2, 30 mM HEPES pH 7.5, 25°C, 30 min
[3] = system: ThiC-TPP allosteric ribozyme (bridge of three base pairs) (RNA, riboswitch) GGGCGUAGCCUGAUGAGCUCGGGGUGCCCUUCUGCGUGAAGGCUGAGAAAUACCCGUAUCACCUGAUCUGGAUAAUGCCAGCGUAGGGAAGCGAAACGUGGUGAAAGCCACGUCGCUGCGCCGCAGCUGUGGAA; conditions: 100 mM KCl, 20 mM MgCl2; 30 mM HEPES pH 7.5, 25°C, 30 min; apparent; text gives only 1 to 3 μM for both bridges
[4] = system: NCU-TPP allosteric ribozyme (bridge of three base pairs) (RNA, riboswitch) GGGCGUAGCCUGAUGAGACUACGGGCGCUGUCGAAAGACAGCUGAGAUUGUACCGUGAUUACUCGAUCAAGUUAAUGCUUGCGUGAGAAACGUCGAAACGUGGUGAAAGCCACGUCGCUGCGCCGCAGCUGUGGAA; conditions: 100 mM KCl, 20 mM MgCl2, 30 mM HEPES pH 7.5, 25°C, 30 min, half-maximal cleavage change
[5] = system: THEO allosteric ribozyme (RNA, aptamer) GGGCGUAGCCUGAUGAGCCCUAAUACCAGCCGAAAGGCCCUUGGCAGUAGAGCGAAACGUGGAAACACGUCGCUGCGAGCUGUGG; conditions: 100 mM KCl, 20 mM MgCl2, 30 mM HEPES pH 7.5, 25°C, 30 min; for binding: 100 μM compound

For `CSCC[C@H](N)C(=O)O`, the binding [1] was “no”.

For `C[S+](CC[C@H](N)C(=O)O)C[C@H]1O[C@@H](n2cnc3c(N)ncnc32)[C@H](O)[C@@H]1O` (stereo partly shown), the binding [1] was “no”.

In the case of `Cc1ncc(C[n+]2csc(CCO)c2C)c(N)n1`, the binding ([2]; cleavage fraction 0.235 against 0.403 without ligand) is reported as “yes”.

For `Cc1ncc(C[n+]2csc(CCOP(=O)(O)OP(=O)(O)O)c2C)c(N)n1`, the “K D” value [3] was 3000 ± 1100 nM, the “apparent K D” value ([2]; apparent, half-maximal cleavage inhibition) was 1200 ± 200 nM and the “apparent K D” value [4] was 2400 ± 1400 nM.

`Cn1c(=O)[nH]c(=O)c2[nH]cnc21` was tested, and the binding ([5]; cleavage fraction 0.421 against 0.163 without ligand) was “yes”.

With `Cn1c(=O)[nH]c2nc[nH]c2c1=O` the binding ([5]; cleavage fraction 0.300 against 0.163 without ligand) was “weak”.

With `Cn1c(=O)c2[nH]cnc2n(C)c1=O` the “apparent K D” value ([5]; apparent, half-maximal cleavage induction) was 3100 ± 200 nM.

In the case of `NC(=O)CC[C@H](N)C(=O)O`, the binding [1] is reported as “no”.

In the case of `N[C@@H](CCS)C(=O)O`, the binding [1] is reported as “no”.

In the case of `N[C@@H](Cc1cnc[nH]1)C(=O)O`, the binding ([2]; cleavage fraction 0.393 against 0.403 without ligand) is reported as “no”.

`Nc1ncnc2c1ncn2[C@@H]1O[C@H](CSCC[C@H](N)C(=O)O)[C@@H](O)[C@H]1O` was tested, and the binding [1] was “no”.
